Reference: patent US20070112077A1, “Des-C,D analogs of 1alpha,25-dihydroxy-19-norvitamin D3” (Wisconsin Alumni Research Foundation, priority 2005, published 2007)

Columns and labels:
[1] = molecular target: T1, full-length recombinant rat vitamin D receptor (Rattus norvegicus, UniProt P13053); experiment: Vitamin D receptor binding, competition with [3H]-1,25-(OH)2-D3; settings: competition with [3H]-1,25-(OH)2-D3, FIG. 1
T1 construct: Full-length recombinant rat receptor was expressed in E. coli; histidine tag (C); made in house; host or cells: E. coli BL21 (DE3) Codon Plus RIL
T1 sequence (P13053 1-423): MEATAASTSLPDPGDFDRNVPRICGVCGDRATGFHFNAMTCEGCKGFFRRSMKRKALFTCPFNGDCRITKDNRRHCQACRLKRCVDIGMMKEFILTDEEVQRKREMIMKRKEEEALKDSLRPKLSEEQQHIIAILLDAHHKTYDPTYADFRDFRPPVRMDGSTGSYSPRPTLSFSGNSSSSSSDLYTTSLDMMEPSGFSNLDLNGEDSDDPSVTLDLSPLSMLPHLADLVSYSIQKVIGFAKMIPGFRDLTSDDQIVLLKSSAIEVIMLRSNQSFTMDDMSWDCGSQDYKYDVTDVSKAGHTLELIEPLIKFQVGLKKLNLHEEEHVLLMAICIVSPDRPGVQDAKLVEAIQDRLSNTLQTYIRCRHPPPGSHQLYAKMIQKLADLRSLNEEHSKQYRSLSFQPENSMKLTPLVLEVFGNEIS
Text: FIG. 1 is a graph comparing the relative activity of Des-C,D and 1,25(OH)2D3 to compete for binding with [^3H]-1 ,25-(OH)2-D3 to the full-length recombinant rat vitamin D receptor.
Full-length recombinant rat receptor was expressed in E. coli BL21 (DE3) Codon Plus RIL cells and purified to homogeneity using two different column chromatography systems. The first system was a nickel affinity resin that utilizes the C-terminal histidine tag on this protein. The protein that eluted from this resin was further purified using ion exchange chromatography (S-Sepharose Fast Flow). Aliquots of the purified protein were quick frozen in liquid nitrogen and stored at −80° C. until use. For use in binding assays, the protein was diluted in TEDK50 (50 mM Tris, 1.5 mM EDTA, pH 7.4, 5 mM DTT, 150 mM KCI) with 0.1% Chaps detergent. […]
Unlabeled ligands were dissolved in ethanol and the concentrations were determined using UV spectrophotometry (1,25(OH)2D3: molar extinction coefficient=18,200 and λmax=265 nm). […]
Radiolabeled and unlabeled ligands were added to 100 mcl of the diluted protein at a final ethanol concentration of ≦10%, mixed and incubated overnight on ice to reach binding equilibrium. […] Total binding was determined from the tubes containing only radiolabeled ligand.

[2] = system: Human promyelocytic leukemia (HL60) cells; experiment: HL-60 differentiation (nitro blue tetrazolium reduction); assay type: cell-based; settings: FIG. 2
Experimental: FIG. 2 is a graph comparing the percent HL-60 cell differentiation as a function of the concentration of Des-C,D with that of 1,25(OH)2D3.
The study drugs were dissolved in ethanol and the concentrations determined using UV spectrophotometry. Serial dilutions were prepared so that a range of drug concentrations was tested without changing the final concentration of ethanol (≦0.2%) present in the cell cultures.
Human promyelocytic leukemia (HL60) cells were grown in RPMI-1640 medium containing 10% fetal bovine serum. The cells were incubated at 37° C. in the presence of 5% CO2.
HL60 cells were plated at 1.2 x 10^5cells/mL. Eighteen hours after plating, cells in duplicate were treated with drug. Four days later, the cells were harvested and a nitro blue tetrazolium reduction assay was performed (Collins et al., 1979; J. Exp. Med. 149:969-974). The percentage of differentiated cells was determined by counting a total of 200 cells and recording the number that contain intracellular black-blue formazan deposits. Verification of differentiation to monocytic cells was determined by measuring phagocytic activity.

[3] = system: 24-hydroxylase (24Ohase) gene promoter in ROS 17/2.8 (bone) cells; experiment: In vitro transcription assay (24-hydroxylase gene promoter, luciferase reporter); assay type: cell-based; settings: ROS 17/2.8 cells, FIG. 3
Experimental: FIG. 3 is a graph comparing the in vitro transcription activity of Des-C, D with that of 1,25(OH)2D3.
Transcription activity was measured in ROS 17/2.8 (bone) cells that were stably transfected with a 24-hydroxylase (240hase) gene promoter upstream of a luciferase reporter gene (Arbour et al., 1998). Cells were given a range of doses. Sixteen hours after dosing the cells were harvested and luciferase activities were measured using a luminometer. RLU=relative luciferase units.

Sprague-Dawley rats = experiment: Bone calcium mobilization (serum calcium); assay type: in vivo, rat; settings: even at the very high dose; four consecutive ip doses; FIG. 4
Text: FIG. 4 is a bar graph comparing the bone calcium mobilization activity of Des-C,D with that of 1,25(OH)2D3.
Male, weanling Sprague-Dawley rats were placed on Diet 11 (Suda et al. J. Nutr. 100:1049, 1970) (0.47% Ca) diet +vitamins AEK for one week followed by Diet 11 (0.02% Ca) +AEK for 3 weeks. The rats were then switched to a diet containing 0.47% Ca for one week followed by two weeks on a diet containing 0.02% Ca. Dose administration began during the last week on 0.02% calcium diet. Four consecutive ip doses were given approximately 24 hours apart. Twenty-four hours after the last dose, blood was collected from the severed neck and the concentration of serum calcium was determined as a measure of bone calcium mobilization. The first 10 cm of the intestine was also collected for intestinal calcium transport analysis using the everted gut sac method. Antagonism was tested by administering a combination of 1,25(OH)2D3 and the compound to the animal simultaneously.

`C=C1[C@H](O)CC(=C/C=C/CCC[C@@H](C)CCCC(C)(C)O)C[C@H]1O` [Des-C,D] was tested, and the “binding to the vitamin D receptor compared with 1,25-(OH)2D3” value [1] was “does not bind to the vitamin D receptor as strongly as the native hormone 1,25-(OH)2D3”, the “activity in inducing differentiation of HL-60 cells compared with 1,25-(OH)2D3” value [2] was “does not show as much activity as 1,25-(OH)2D3” and the “activity in causing transcription compared with 1,25-(OH)2D3” value [3] was “does not show as much activity in causing transcription as 1,25-(OH)2D3”. For the same molecule, the “bone calcium mobilizing activity” value (Sprague-Dawley rats) was “no measureable bone calcium mobilizing activity”.
